Experimental data from patent US20250302817A1, “METHODS FOR TREATING PTEN-MUTANT TUMORS” (Icahn School of Medicine at Mount Sinai, priority 2016, published 2025).

Legend:
gamma-H2AX = assay: Gamma-H2AX measurement of DNA damage by flow cytometry; assay type: cell-based; conditions: 100 μM leflunomide 48 h or A771726
Procedure: (§1) FIG. 4A is a graph showing positively-stained cells labeled with a gamma-H2AX antibody; cells were analyzed by flow cytometry (Student's t-test, *p<0.05, n=3). […] The mean fluorescence intensity (MFI) was determined using flow cytometry (Student's t-test, *p<0.01, n=3). FIG. 4C is a series of representative photographs showing MEFs treated with 150 μM A771726 for 24 h and labeled with EdU and gamma-H2AX. Left: representative confocal microscopy images. Right: quantified EdU and gamma-H2AX colocalized foci (Student's t-test, *p<0.05, n=3). […] Left: representative confocal microscopy images. Right: quantification of the number of foci per cell (Student's t-test, p>0.05, n=6). FIG. 4E is a graph showing the percentage of cells treated with 150 μM A771726 for times indicated and labeled with antibodies to RPA and gamma-H2AX positively staining for RPA alone or both RPA and gamma-H2AX; cells were analyzed by flow cytometry (Student's t-test, *p<0.05, n=4). […] FIGS. 4G and 4H are graphs quantifying the number of chromosomal breaks and multiradial formations per haploid genome (Student's t-test, *p-values on figure, cells scored/replicate>100). […]
(§2) FIG. 10D is a bar graph showing a quantitative depiction of the percent cell area with EdU-staining from images in FIG. 4D, used to normalize foci to cell size (Student's t-test, p>0.05, not significant, n=6). […]

[1] = test system: MCCL-357 and MCCL-278 cells; assay: Karyotyping (chromosomal analysis); assay type: cell-based, mouse; conditions: A771726, by 48 h; MCCL-357 compared to MCCL-278
Procedure: as §1, §2

[2] = repeated doses of teriflunomide; cited from earlier work

C/C(O)=C(\C#N)C(=O)Nc1ccc(C(F)(F)F)cc1 [teriflunomide, (Z)-2-Cyano-3-hydroxy-but-2-enoic acid-(4trifluoromethylphenyl)-amide]
DNA damage (gamma-H2AX) in PTEN-deficient versus WT cells (gamma-H2AX): augmented DNA damage to a significantly greater degree in PTEN-deficient cells | chromosome gaps, breaks, and multiradial formations [1]: greater number of chromosome gaps, breaks, and multiradial formations in MCCL-357 cells | increase in mean ethinylestradiol AUC 0-24 [2]: 1.54 fold | increase in mean ethinylestradiol Cmax [2]: 1.58 fold | increase in mean levonorgestrel AUC 0-24 [2]: 1.41 fold | increase in mean levonorgestrel Cmax [2]: 1.33 fold
